# In patent publication EP0985409A1, “Cosmetic use of fatty acids” (Shiseido International France SA, priority 1998, dated 2000):
# Experiments:
# MMP-9 [1] = target: T1, MMP-9 (Homo sapiens, UniProt P14780); test: Ex vivo protection of extracellular matrix fibres: skin sections pre-incubated with fatty acid, then enzyme; format: biochemical, humaine; design: L'enzyme sous sa forme activée a été incubée pendant 15 min; details: then MMP-9; for % de protection: 10 µM
# From the text: (§1) Les études ex vivo ont été réalisées sur des coupes de peau humaine issues de prépuces d'enfants âgés de 10 à 24 mois. Les coupes mises en oeuvre étaient des coupes de congélation de 8 µm d'épaisseur, sériées.
# (§2) L'effet protecteur de la matrice extra-cellulaire a été déterminé de la façon suivante : les lames portant les coupes de peau ont été incubées sous agitation douce pendant 4 heures dans l'éthanol pur contenant l'acide gras selon l'invention à la concentration désirée. Puis les coupes ont été rincées et séchées. L'enzyme a alors été déposée sur la coupe, la lame a été mise à incuber en atmosphère humide à 37°C pendant 4 à 18 heures. A la fin de l'incubation, les lames ont été colorées avec les colorants spécifiques de l'élastine ou des collagènes mentionnés plus haut.
# (§3) Les résultats obtenus ont été déterminés selon le principe de quantification suivant: les fibres élastiques ont été colorées de façon spécifique par la + catéchine, et ont été quantifiées grâce à un système morphométrique précis et automatisé. Les lames ont été observées sous microscope équipé d'une caméra. Les images générées ont été converties en niveaux de gris correspondant aux composants à étudier. Les plus petites particules ne correspondant pas à ces éléments ont été éliminées de l'analyse. Un programme spécifique a permis de calculer ensuite la surface relative occupée par les fibres. Avec les fibres élastiques on a pu calculer l'aire et également le volume occupé par celles-ci, puisque leur longueur est supérieure à leur largeur. L'aire occupée par les trousseaux collagéniques a pu être quantifiée selon la même procédure.
# Les résultats obtenus figurent dans le Tableau V ci-après : Tableau V
# Target sequence in this assay (P14780 107-707 limits assumed): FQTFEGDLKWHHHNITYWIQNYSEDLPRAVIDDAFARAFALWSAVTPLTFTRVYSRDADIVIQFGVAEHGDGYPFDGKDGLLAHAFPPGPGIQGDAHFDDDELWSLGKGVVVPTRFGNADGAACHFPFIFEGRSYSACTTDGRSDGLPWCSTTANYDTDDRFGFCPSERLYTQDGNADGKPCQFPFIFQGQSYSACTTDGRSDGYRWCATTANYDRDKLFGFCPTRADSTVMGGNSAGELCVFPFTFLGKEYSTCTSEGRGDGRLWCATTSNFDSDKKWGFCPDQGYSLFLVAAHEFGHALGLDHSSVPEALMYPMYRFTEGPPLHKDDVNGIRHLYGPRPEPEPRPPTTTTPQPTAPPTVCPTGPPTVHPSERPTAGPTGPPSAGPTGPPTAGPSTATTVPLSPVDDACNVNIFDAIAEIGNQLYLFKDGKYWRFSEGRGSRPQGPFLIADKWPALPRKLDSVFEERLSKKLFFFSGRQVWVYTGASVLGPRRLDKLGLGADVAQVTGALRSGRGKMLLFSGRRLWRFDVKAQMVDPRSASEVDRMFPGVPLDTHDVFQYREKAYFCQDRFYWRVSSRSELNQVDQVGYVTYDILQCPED
# MMP-9 [2] = target: T1, MMP-9; test: Inhibition of MMP enzymatic activity, hydrolysis of fluorescent synthetic substrate; format: biochemical; details: MMP-9, Gélatinase B
# From the text: (§4) On a démontré l'effet d'inhibition d'acides gras selon l'invention vis à vis de différentes métalloprotéinases matricielles. A cet effet, on a déterminé l'activité enzymatique de ces MMPs en utilisant un substrat synthétique fluorescent, le (7- méthoxycoumarine-4-yl) acétyl-Pro-Leu-Gly-Leu-(3-[2,4-dinitrophényl]-L-2,3-diaminopropionyl)-Ala-ArgNH2. Les MMPs peuvent cliver de façon spécifique la liaison amide qui lie les acides aminés Gly et Leu de ce substrat.
# (§5) L'hydrolyse s'accompagne d'une augmentation sensible de la fluorescence qui peut être suivie et quantifiée à l'aide d'un spectrofluorimètre aux longueurs d'onde choisies. Suite à la rupture de la liaison Gly-Leu, le groupement dinitrophényl ne peut plus masquer la fluorescence du groupement 7-méthoxycoumarine.
# (§6) On a réalisé cette hydrolyse du substrat par la MMP-2 et la MMP-9 en absence ou en présence de différentes concentrations d'acides gras selon l'invention. Les constantes d'inhibition (Ki) de l'activité enzymatique ont pu être ainsi déterminées. Les résultats obtenus figurent dans le Tableau I ci-dessous. Tableau I
# Target sequence in this assay (P14780 94-707): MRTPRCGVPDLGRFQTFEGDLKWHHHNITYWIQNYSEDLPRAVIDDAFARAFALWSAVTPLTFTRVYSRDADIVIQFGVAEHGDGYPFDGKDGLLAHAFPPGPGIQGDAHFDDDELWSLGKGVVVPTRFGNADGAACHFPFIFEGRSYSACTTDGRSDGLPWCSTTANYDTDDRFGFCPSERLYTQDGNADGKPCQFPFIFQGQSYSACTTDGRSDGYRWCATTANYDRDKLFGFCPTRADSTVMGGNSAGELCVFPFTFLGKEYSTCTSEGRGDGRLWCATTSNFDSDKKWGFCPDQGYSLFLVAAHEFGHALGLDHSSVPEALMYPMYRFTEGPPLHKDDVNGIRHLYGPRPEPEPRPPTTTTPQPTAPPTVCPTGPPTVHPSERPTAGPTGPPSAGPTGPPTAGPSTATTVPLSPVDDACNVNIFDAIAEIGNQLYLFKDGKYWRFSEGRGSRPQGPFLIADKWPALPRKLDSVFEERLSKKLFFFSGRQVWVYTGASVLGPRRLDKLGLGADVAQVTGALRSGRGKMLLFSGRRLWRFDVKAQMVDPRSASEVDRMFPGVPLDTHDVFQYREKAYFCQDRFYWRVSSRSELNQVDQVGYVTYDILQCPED
# MMP-2 [3] = target: T2, MMP-2 (Homo sapiens, UniProt P08253); test: as above; format: biochemical; details: MMP-2, Gélatinase A
# T2 sequence (P08253 110-660): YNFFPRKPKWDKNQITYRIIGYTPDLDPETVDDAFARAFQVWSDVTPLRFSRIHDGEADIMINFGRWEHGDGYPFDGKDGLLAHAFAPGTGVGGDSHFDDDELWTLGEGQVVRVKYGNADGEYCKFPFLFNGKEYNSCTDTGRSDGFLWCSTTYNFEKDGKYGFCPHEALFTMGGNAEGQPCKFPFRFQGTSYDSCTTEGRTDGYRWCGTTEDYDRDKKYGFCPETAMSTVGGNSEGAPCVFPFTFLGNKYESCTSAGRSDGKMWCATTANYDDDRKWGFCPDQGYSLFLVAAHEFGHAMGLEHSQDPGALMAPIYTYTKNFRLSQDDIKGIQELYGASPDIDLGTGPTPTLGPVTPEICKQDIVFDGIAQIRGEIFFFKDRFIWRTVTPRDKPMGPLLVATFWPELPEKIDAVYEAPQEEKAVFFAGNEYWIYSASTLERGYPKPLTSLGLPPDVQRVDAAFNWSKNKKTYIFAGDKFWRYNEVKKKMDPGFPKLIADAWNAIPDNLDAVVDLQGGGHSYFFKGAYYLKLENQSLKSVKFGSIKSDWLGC
# From the text: as §4, §5, §6
# MMP-1 = target: T3, MMP-1 (Homo sapiens, UniProt P03956); test: as above; format: biochemical; details: MMP-1, Collagénase intersticielle
# T3 sequence (P03956 100-469): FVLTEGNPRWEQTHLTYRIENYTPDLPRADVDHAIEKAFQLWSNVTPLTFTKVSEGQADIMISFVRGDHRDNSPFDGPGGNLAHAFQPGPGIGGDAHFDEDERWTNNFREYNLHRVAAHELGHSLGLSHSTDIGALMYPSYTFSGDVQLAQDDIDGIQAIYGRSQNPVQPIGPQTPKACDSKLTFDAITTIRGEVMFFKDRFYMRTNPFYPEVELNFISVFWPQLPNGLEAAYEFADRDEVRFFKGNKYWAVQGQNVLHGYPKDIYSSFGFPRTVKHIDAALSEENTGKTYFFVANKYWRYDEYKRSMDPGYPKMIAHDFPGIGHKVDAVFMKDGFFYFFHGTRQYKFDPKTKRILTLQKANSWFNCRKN
# MMP-3 = MMP-3 (Homo sapiens, UniProt P08254); test: as above; format: biochemical; details: MMP-3, Stromélysine-1
# Sequence of MMP-3 (P08254 100-477): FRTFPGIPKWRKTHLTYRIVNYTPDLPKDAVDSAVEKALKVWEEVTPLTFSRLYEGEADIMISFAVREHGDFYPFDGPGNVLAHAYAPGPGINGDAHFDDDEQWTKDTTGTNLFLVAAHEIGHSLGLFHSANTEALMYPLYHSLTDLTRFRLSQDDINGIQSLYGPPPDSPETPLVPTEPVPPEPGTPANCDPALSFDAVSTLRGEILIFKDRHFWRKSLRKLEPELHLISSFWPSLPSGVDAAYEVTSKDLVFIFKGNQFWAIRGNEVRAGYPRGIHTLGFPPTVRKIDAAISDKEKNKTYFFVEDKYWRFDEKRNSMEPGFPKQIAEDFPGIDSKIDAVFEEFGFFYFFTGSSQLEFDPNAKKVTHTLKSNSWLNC
# MMP-2 [4] = target: T2, MMP-2; test: Ex vivo protection of extracellular matrix fibres: skin sections pre-incubated with fatty acid, then enzyme; format: biochemical, humaine; design: L'enzyme sous sa forme activée a été incubée pendant 15 min; details: then MMP-2; for % de protection: 10 µM
# From the text: as §1, §2, §3
# Les trousseaux étaient plus denses, plus épais, leurs extrémités étaient moins effilochées, le réseau apparaissait plus dense. […] La quantification des fibres a permis d'obtenir les résultats figurant dans le Tableau IV suivant : Tableau IV
# MMP-2 [5] = target: T2, MMP-2; test: Ex vivo inhibition of enzyme activity on human skin sections: collagen bundle hydrolysis, enzyme pre-incubated with fatty acid; format: biochemical, humaine; design: L'enzyme sous sa forme activée a été incubée pendant 15 min; details: for inhibition at 1 µM / inhibition at 10 µM: hydrolysis of collagen bundles by MMP-2, human skin sections, read-out: % d'inhibition; for hydrolyse des trousseaux collagéniques (observation): MMP-2 pre-incubated with fatty acid
# Protocol: as §1
# (§7) L'effet inhibiteur de l'activité enzymatique a été déterminé de la manière suivante : les enzymes testées étaient les suivantes : MMP-2, MMP-9 ou élastase leucocytaire. L'enzyme sous sa forme activée a été incubée pendant 15 min avec différentes concentrations d'acides gras selon l'invention, puis la solution contenant l'enzyme et l'inhibiteur a été déposée sur la coupe de peau humaine et incubée 4 à 18 heures à 37°C dans une atmosphère humide.
# (§8) A la fin de l'incubation, les coupes ont été colorées avec des colorants spécifiques. Le colorant de l'élastine est la + catéchine et celui des collagènes est le rouge sirius.
# as §3
# On a étudié l'activité protéolytique de la MMP-2 sur les collagènes. Lorsque la MMP-2 est ajoutée sur les coupes de peau, on a pu observer une hydrolyse des trousseaux collagéniques, ceux-ci étant moins denses et moins nombreux. De plus l'épiderme était décollé. L'hydrolyse était de 34 % environ.
# élastase leucocytaire = target: T4, élastase leucocytaire (Homo sapiens, UniProt P08246); test: Ex vivo protection of elastic fibres: skin sections pre-incubated with fatty acid, then enzyme; format: biochemical, humaine; details: section pre-incubated with fatty acid; degradation of elastic fibres by élastase leucocytaire; concentration not given
# T4 construct: L'enzyme sous sa forme activée a été incubée pendant 15 min
# T4 sequence (P08246 30-267): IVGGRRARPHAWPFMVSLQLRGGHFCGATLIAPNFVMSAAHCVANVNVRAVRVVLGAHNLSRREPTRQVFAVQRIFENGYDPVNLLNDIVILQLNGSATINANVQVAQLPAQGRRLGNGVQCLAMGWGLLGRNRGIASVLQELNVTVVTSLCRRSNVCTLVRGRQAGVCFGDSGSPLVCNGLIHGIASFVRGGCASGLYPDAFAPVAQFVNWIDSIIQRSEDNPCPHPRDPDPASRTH
# From the text: as §1, §2
# as §3, with “Un programme spécifique a permis de calculer ensuite la surface relative occupée par les fibres. Avec les fibres élastiques on a pu calculer l'aire et également le volume occupé par celles-ci, puisque leur longueur est supérieure à leur largeur.” left out, “procédure. […]” for “procédure.”
# MMP-9 [6] = target: T1, MMP-9; test: Ex vivo inhibition of enzyme activity on human skin sections: elastic fibre hydrolysis, enzyme pre-incubated with fatty acid; format: biochemical, humaine; design: L'enzyme sous sa forme activée a été incubée pendant 15 min; details: for inhibition at 1 µM / inhibition at 10 µM: hydrolysis of elastic fibres by MMP-9, human skin sections, read-out: % d'inhibition; for inhibition de l'activité de la MMP-9 (observation): MMP-9 pre-incubated with fatty acid, elastic fibres
# Protocol: as §1, §7, §8, §3
# Target sequence in this assay (P14780 107-707 limits assumed): as the sequence (P14780 107-707 limits assumed) above
# Dans le cas de la MMP-9, on a étudié l'hydrolyse des fibres élastiques. En effet, à l'inverse de la MMP-2, la MMP-9 possède essentiellement une activité élastinolytique in situ.
# Au niveau des fibres élastiques matures du derme moyen, on a observé une hydrolyse par la MMP-9. Les fibres élastiques étaient courtes et en paquets au lieu d'être longues et bien individualisées. L'hydrolyse était de 35 % environ. […] La quantification de l'hydrolyse des fibres élastiques par la MMP-9 en fonction des différents traitements a permis de déterminer le pourcentage d'inhibition de l'activité enzymatique. Les résultats obtenus figurent dans le Tableau III suivant : Tableau III
SMILES,% de protection (MMP-9 [1]),hydrolyse des fibres élastiques (observation) (MMP-9 [1]),Ki (MMP-9 [2]),Ki (MMP-2 [3]),Ki (MMP-1),Ki (MMP-3),% de protection (MMP-2 [4]),hydrolyse des trousseaux collagéniques (observation) (MMP-2 [4]),inhibition at 1 µM (MMP-2 [5]),hydrolyse des trousseaux collagéniques (observation) (MMP-2 [5]; 10 µM),inhibition at 10 µM (MMP-2 [5]; 10 µM),protection (élastase leucocytaire),inhibition at 1 µM (MMP-9 [6]),inhibition at 10 µM (MMP-9 [6]),inhibition de l'activité de la MMP-9 (observation) (MMP-9 [6]),hydrolyse des trousseaux collagéniques (observation) (MMP-2 [5]; 1 µM)
CCCCCCCC/C=C/CCCCCCCC(=O)O [acide élaïdique],98%,l'hydrolyse des fibres élastiques matures du derme moyen par la MMP-9 était nettement diminuée,5.8 µM,4.25 µM,2.7 µM,1.8 µM,32%,La même constatation a pu être faite,,,,,,,,
CC/C=C/C=C/C=C/C=C\CCCCCCCC(=O)O [acide cis-parinarique],,,14 µM,8 µM,,,,,18%,inhibait moins l'activité enzymatique,40%,58%,10%,24%,Cette inhibition est retrouvée,
CC/C=C/C=C/C=C/C=C/CCCCCCCC(=O)O [acide trans-parinarique],75%,l'hydrolyse des fibres préélastiques du derme superficiel était diminuée,1.9 µM,24 µM,,,61%,hydrolyse des trousseaux collagéniques nettement moins marquées,12%,l'hydrolyse était nettement diminuée,56%,,16%,48%,inhibe l'activité de celle-ci,l'hydrolyse a été diminuée
